Measurements from PubChem BioAssay (NCI).
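Values below derive from 48-hour exposures of cells grown in 96-well plates, with endpoints linearly interpolated between the two concentrations bracketing the appropriate inhibition level. TGI denotes the concentration required for complete inhibition of growth.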

What was measured:
Experiment in all cases: NCI tumour cell line growth inhibition, 48 h
M14 melanoma = tested on: M14 melanoma
A549 NSCLC = tested on: A549 NSCLC
NCI-H460 lung = tested on: NCI-H460 lung
OVCAR-4 ovarian = tested on: OVCAR-4 ovarian
HCC-2998 colon = tested on: HCC-2998 colon
EKVX NSCLC = tested on: EKVX NSCLC
K-562 leukemia = tested on: K-562 leukemia
TK-10 renal = tested on: TK-10 renal
A498 renal = tested on: A498 renal
SW-620 colon = tested on: SW-620 colon
ACHN renal = tested on: ACHN renal
CAKI-1 renal = tested on: CAKI-1 renal
RPMI-8226 leukemia = tested on: RPMI-8226 leukemia
OVCAR-5 ovarian = tested on: OVCAR-5 ovarian
SNB-19 CNS = tested on: SNB-19 CNS
BT-549 breast = tested on: BT-549 breast
RXF 393 renal = tested on: RXF 393 renal
NCI/ADR-RES ovarian = tested on: NCI/ADR-RES ovarian
UO-31 renal = tested on: UO-31 renal
NCI-H23 lung = tested on: NCI-H23 lung
KM12 colon = tested on: KM12 colon
SK-OV-3 ovarian = tested on: SK-OV-3 ovarian
HOP-62 NSCLC = tested on: HOP-62 NSCLC
SF-295 CNS = tested on: SF-295 CNS
HCT-15 colon = tested on: HCT-15 colon
SK-MEL-5 melanoma = tested on: SK-MEL-5 melanoma
786-0 renal = tested on: 786-0 renal
COLO 205 colon = tested on: COLO 205 colon
T-47D breast = tested on: T-47D breast
HS 578T breast = tested on: HS 578T breast
MOLT-4 leukemia = tested on: MOLT-4 leukemia
MALME-3M melanoma = tested on: MALME-3M melanoma
OVCAR-8 ovarian = tested on: OVCAR-8 ovarian
SNB-75 CNS = tested on: SNB-75 CNS
CCRF-CEM leukemia = tested on: CCRF-CEM leukemia
HT29 colon = tested on: HT29 colon
DU-145 prostate = tested on: DU-145 prostate
SK-MEL-28 melanoma = tested on: SK-MEL-28 melanoma
NCI-H522 lung = tested on: NCI-H522 lung
NCI-H226 lung = tested on: NCI-H226 lung
SF-268 CNS = tested on: SF-268 CNS
HCT-116 colon = tested on: HCT-116 colon
MDA-MB-231 breast = tested on: MDA-MB-231 breast
IGROV1 ovarian = tested on: IGROV1 ovarian
SF-539 CNS = tested on: SF-539 CNS
OVCAR-3 ovarian = tested on: OVCAR-3 ovarian
U251 CNS = tested on: U251 CNS
LOX IMVI melanoma = tested on: LOX IMVI melanoma
UACC-257 melanoma = tested on: UACC-257 melanoma
SK-MEL-2 melanoma = tested on: SK-MEL-2 melanoma
PC-3 prostate = tested on: PC-3 prostate
MCF7 breast = tested on: MCF7 breast
HOP-92 NSCLC = tested on: HOP-92 NSCLC
MDA-MB-435 = tested on: MDA-MB-435
HL-60(TB) leukemia = tested on: HL-60(TB) leukemia
UACC-62 melanoma = tested on: UACC-62 melanoma

For Cn1nc(C(=O)N2CC(CCl)c3c2cc(N)c2ccccc32)cc1NC(=O)Nc1cc(C(=O)N2CC(CCl)c3c2cc(N)c2ccccc32)nn1C (stereo not drawn), the TGI (M14 melanoma) was 5.58 µM, the TGI (A549 NSCLC) was > 100 µM and the TGI (NCI-H460 lung) was > 100 µM. The TGI (OVCAR-4 ovarian) was > 100 µM, the TGI (HCC-2998 colon) was > 100 µM and the TGI (EKVX NSCLC) was > 100 µM. For the same compound, the TGI (K-562 leukemia) was > 100 µM, the TGI (TK-10 renal) was > 100 µM and the TGI (A498 renal) was 54.5 µM. The TGI (SW-620 colon) was > 100 µM, the TGI (ACHN renal) was > 100 µM and the TGI (CAKI-1 renal) was 6.13 µM. For the same compound, the TGI (RPMI-8226 leukemia) was > 100 µM, the TGI (OVCAR-5 ovarian) was > 100 µM and the TGI (SNB-19 CNS) was 2.32 µM. For the same compound, the TGI (BT-549 breast) was 0.523 µM, the TGI (RXF 393 renal) was 0.511 µM and the TGI (NCI/ADR-RES ovarian) was > 100 µM. For the same compound, the TGI (UO-31 renal) was 65.5 µM, the TGI (NCI-H23 lung) was 0.661 µM and the TGI (KM12 colon) was > 100 µM. The TGI (SK-OV-3 ovarian) was > 100 µM, the TGI (HOP-62 NSCLC) was 69.3 µM and the TGI (SF-295 CNS) was > 100 µM. For the same compound, the TGI (HCT-15 colon) was > 100 µM.

In the case of CC(C)(C)c1ccc(O)c(C(O)c2ccncc2)c1 (stereo not drawn), the TGI (A549 NSCLC) is reported as > 100 µM, the TGI (NCI-H460 lung) is reported as > 100 µM and the TGI (SK-MEL-5 melanoma) is reported as 66.7 µM. The TGI (786-0 renal) was > 100 µM, the TGI (COLO 205 colon) was > 100 µM and the TGI (HCC-2998 colon) was > 100 µM. For the same compound, the TGI (T-47D breast) was > 100 µM, the TGI (HS 578T breast) was > 100 µM and the TGI (EKVX NSCLC) was > 100 µM. The TGI (K-562 leukemia) was > 100 µM, the TGI (MOLT-4 leukemia) was > 100 µM and the TGI (MALME-3M melanoma) was > 100 µM. For the same compound, the TGI (OVCAR-8 ovarian) was > 100 µM, the TGI (SNB-75 CNS) was > 100 µM and the TGI (CCRF-CEM leukemia) was > 100 µM. For the same compound, the TGI (HT29 colon) was > 100 µM, the TGI (DU-145 prostate) was > 100 µM and the TGI (SW-620 colon) was > 100 µM. For the same compound, the TGI (SK-MEL-28 melanoma) was > 100 µM, the TGI (ACHN renal) was > 100 µM and the TGI (CAKI-1 renal) was > 100 µM. For the same compound, the TGI (OVCAR-5 ovarian) was > 100 µM, the TGI (NCI-H522 lung) was > 100 µM and the TGI (BT-549 breast) was > 100 µM. The TGI (NCI-H226 lung) was > 100 µM, the TGI (SF-268 CNS) was > 100 µM and the TGI (RXF 393 renal) was > 100 µM. For the same compound, the TGI (HCT-116 colon) was > 100 µM, the TGI (NCI/ADR-RES ovarian) was > 100 µM and the TGI (UO-31 renal) was > 100 µM. The TGI (MDA-MB-231 breast) was > 100 µM, the TGI (NCI-H23 lung) was > 100 µM and the TGI (KM12 colon) was > 100 µM. The TGI (IGROV1 ovarian) was > 100 µM, the TGI (HOP-62 NSCLC) was > 100 µM and the TGI (SF-539 CNS) was > 100 µM. The TGI (HCT-15 colon) was > 100 µM and the TGI (OVCAR-3 ovarian) was > 100 µM.

Cc1ccc(-n2c(N)c(C#N)c3[nH]nc(N)c3c2=O)cc1 was tested, and the TGI (M14 melanoma) was > 100 µM, the TGI (U251 CNS) was > 100 µM and the TGI (LOX IMVI melanoma) was > 100 µM. The TGI (NCI-H460 lung) was > 100 µM, the TGI (SK-MEL-5 melanoma) was > 100 µM and the TGI (786-0 renal) was > 100 µM. The TGI (OVCAR-4 ovarian) was > 100 µM, the TGI (COLO 205 colon) was > 100 µM and the TGI (HCC-2998 colon) was > 100 µM. The TGI (T-47D breast) was > 100 µM, the TGI (HS 578T breast) was > 100 µM and the TGI (EKVX NSCLC) was > 100 µM. For the same compound, the TGI (K-562 leukemia) was > 100 µM, the TGI (MOLT-4 leukemia) was > 100 µM and the TGI (OVCAR-8 ovarian) was > 100 µM. For the same compound, the TGI (SNB-75 CNS) was > 100 µM, the TGI (TK-10 renal) was > 100 µM and the TGI (CCRF-CEM leukemia) was > 100 µM. The TGI (UACC-257 melanoma) was > 100 µM, the TGI (HT29 colon) was > 100 µM and the TGI (DU-145 prostate) was > 100 µM. The TGI (A498 renal) was > 100 µM, the TGI (SW-620 colon) was > 100 µM and the TGI (SK-MEL-28 melanoma) was > 100 µM. The TGI (ACHN renal) was > 100 µM, the TGI (CAKI-1 renal) was > 100 µM and the TGI (RPMI-8226 leukemia) was > 100 µM. For the same compound, the TGI (SK-MEL-2 melanoma) was > 100 µM, the TGI (PC-3 prostate) was > 100 µM and the TGI (SNB-19 CNS) was > 100 µM. For the same compound, the TGI (MCF7 breast) was > 100 µM, the TGI (HOP-92 NSCLC) was > 100 µM and the TGI (NCI-H226 lung) was > 100 µM. The TGI (SF-268 CNS) was > 100 µM, the TGI (MDA-MB-435) was > 100 µM and the TGI (RXF 393 renal) was > 100 µM. The TGI (HCT-116 colon) was > 100 µM, the TGI (NCI/ADR-RES ovarian) was > 100 µM and the TGI (UO-31 renal) was > 100 µM. The TGI (HL-60(TB) leukemia) was > 100 µM, the TGI (MDA-MB-231 breast) was > 100 µM and the TGI (NCI-H23 lung) was > 100 µM. The TGI (KM12 colon) was > 100 µM, the TGI (IGROV1 ovarian) was > 100 µM and the TGI (UACC-62 melanoma) was > 100 µM. For the same compound, the TGI (SK-OV-3 ovarian) was > 100 µM, the TGI (HOP-62 NSCLC) was > 100 µM and the TGI (SF-539 CNS) was > 100 µM. The TGI (SF-295 CNS) was > 100 µM and the TGI (HCT-15 colon) was > 100 µM.
